# Results from US6541468B1, “Indolocarbazole derivatives useful for the treatment of neurodegenerative diseases and cancer” (Bayer Corporation, priority 1998, dated 2003).
row,Structure (SMILES),melting point
1,"O=C1NC(=O)c2c1c1c3ccccc3n3c1c1c2c2ccccc2n1C1CC3[C@@H](O)[C@H]1O [Example 1, 9,12-Methano-1H-diindolo[1,2,3-fg:3′,2′,1′-kl]pyrrolo[3,4-][1,6]benzodiazocine-1,3 (2H)-dione,9,10,11,12-tetrahydro-10,11-dihydroxy-(9α,10α,11α,12α)]",> 200 °C
2,"O=C1NC(=O)c2c1c1c3ccccc3n3c1c1c2c2ccccc2n1C1CC3CC1=O (centres unmarked) [Example 3, 9,12-Methano-1H-diindolo[1,2,3-fg:3′,2′,1′-kl]pyrrolo[3,4-I][1,6]benzodiazocine-1,3,10 (2H,9H)-trone, 11,12-dihydro]",> 230 °C
